Test [1] concerns Mus musculus. The test is described as follows: Antiinflammatory activity in albino mouse assessed as inhibition of carrageenan-induced paw edema at 100 mg/kg, po administered 1 hr before carrageenan challenge measured after 3 hrs. In kind it is functional.
In test [2] the test system is Mus musculus. The test can be described thus: Antiinflammatory activity in albino mouse assessed as inhibition of carrageenan-induced paw edema at 125 mg/kg, po administered 1 hr before carrageenan challenge measured after 3 to 7 hrs. The test is classed as functional, organism-based. Set-up: dose 125 mg/kg. On the technique in general: The carrageenan paw model is a standard test of acute inflammation.

Test [3] deals with Mus musculus. The test is described as follows: Antiinflammatory activity in albino mouse assessed as inhibition of carrageenan-induced paw edema at 250 mg/kg, po administered 1 hr before carrageenan challenge measured after 3 hrs. In kind it is functional.
Test [4] concerns Mus musculus. The test is described as follows: Antiinflammatory activity in albino mouse assessed as inhibition of carrageenan-induced paw edema at 80 mg/kg, ip administered 1 hr before carrageenan challenge measured after 3 hrs. In kind it is functional. To be noted: route intraperitoneal.
The test system of test [5] is Mus musculus. The test is described as follows: Antiinflammatory activity in po dosed albino mouse assessed as inhibition of carrageenan-induced paw edema administered 1 hr before carrageenan challenge measured. In kind it is functional, organism-based.
For test [6], the system named is Mus musculus. The test can be described thus: Antiinflammatory activity in albino mouse assessed as inhibition of carrageenan-induced paw edema at 75 mg/kg, ip administered 1 hr before carrageenan challenge measured after 3 to 7 hrs. In kind it is functional. The settings on record: route intraperitoneal.

Activity calls are given as the source filed them. The rule behind the calls is not given here.

On to `CCCCC1C(=O)N(c2ccccc2)N(c2ccccc2)C1=O` [PHENYLBUTAZONE], for which, in the test with Mus musculus [1], the inhibition in vivo at 100 mg/kg worked out at 47.7%.
As for `C=C[C@@]1(CO)CC[C@H]2[C@]3(C)CCCC(C)(C)[C@H]3CC[C@]2(C)O1`, the result in the test with Mus musculus [2] was Active. Further, the inhibition in vivo at 250 mg/kg in the test on Mus musculus [3] is 55.8%. In addition, the inhibition in vivo at 80 mg/kg with Mus musculus [4] stood at 63.5%. For the same compound, the Activity result in the test with Mus musculus [5] was “Dose-dependent effect”. Besides, the inhibition in vivo at 75 mg/kg with Mus musculus [6] came to 60.1%.

Broadly, the inhibition in vivo is the share of the control response that was lost under treatment.

The record behind these values is ChEMBL document CHEMBL1147310, “Anti-inflammatory compounds from Sideritis javalambrensis n-hexane extract” (1989).
